According to patent US9212209B2, “Screening methods for spinal muscular atrophy” (Indiana University Research and Technology Corporation, priority 2012, dated 2015):
pEC50: −log10 of the molar value. Like-named read-outs stand apart in the source and are kept apart here.

System: SMN2-luciferase reporter
Assay: SMN2-luciferase reporter assay (clonal HEK-293 SMN2-luc cells)
Type: cell-based, human
Design: % activation: concentration or dose not given beside the values
Conditions: for Active / % activation: reporter assay; for % activation: Table 5; for Emax: read-out: Max % Activity
Procedure: The reporter cell lines were plated at 50,000 cells per well in 96-well plates and incubated overnight. Compounds were added to each well and incubated at 37° C. overnight. The final DMSO concentration was 0.1%. Luciferase activity was assayed using either STEADYGLO (PROMEGA E2510) or DUALGLO (PROMEGA E2920) luciferase using the WALLAC ENVISION multilabel reader. For detailed assay conditions see Table 2A. All data points were transformed from CPS to percent increase over basal expression in the treated control wells (DMSO or H2O as appropriate).
Plates were sealed with porous paper tape and incubated for 24 hours. […] For comparison, data points were transformed from CPS to percent activation over basal expression in the DMSO treated control wells.
For comparison, all data points are expressed as percent increase over basal luciferase expression in the control cells.

[1] = Homo sapiens, HEK293, reporter assay, Table 6, read-out: Ec50
[2] = Homo sapiens, HEK293, reporter assay, Table 6

| Structure (SMILES) | Active (Table 6) | pEC50 [1] | Emax [2] [%] | also measured |
| --- | --- | --- | --- | --- |
| COc1cc2c(c(OC)c1OC)C(c1cccc(C(F)(F)F)c1)CC(=O)N2 (stereo not drawn) [CAL-55] | No | – | – | – |
| O=C1CCc2cc(C(=O)CSc3ccccc3)ccc2N1 [Compound 98541] | – | – | – | % activation: 124% |
| O=C(Nc1nc2c(s1)Cc1ccccc1-2)C1=COCCO1 [Compound 110181] | – | – | – | % activation: 120% |
| CC(C)(C)c1cc(NC(=O)c2ccc(F)c(Cl)c2)on1 [LDN-211861] | Yes | 5.43 | 100 | – |
| CC1CC(C(=O)Nc2ccc(F)cc2)=NO1 (stereo not drawn) [CAL-5] | Yes | 5.00 | 108 | – |
| COc1ccc(NC(=O)c2cc(C(C)C)on2)cc1OC [CAL-26] | Yes | 4.03 | 160 | – |
| Cc1csc(NC(=O)c2ccc(F)c(Cl)c2)n1 [LDN-211984] | Yes | 5.68 | 200 | – |
| CC(C)Cc1cc(C(=O)Nc2ccc(F)c(Cl)c2)no1 [LDN-75879] | Yes | 5.82 | 180 | – |
| O=C(Nc1ccc(Cl)cc1)C1=NOC(c2ccccc2)C1 (stereo not drawn) [CAL-7] | Yes | 5.00 | 134 | – |
| COc1cc2c(c(OC)c1OC)C(c1cccnc1)CC(=O)N2 (stereo not drawn) [LDN-76158] | No | – | – | – |
| COc1cc2c(c(OC)c1OC)C(c1cc(Cl)ccc1F)N(CCN(C)C)C(=O)N2 (stereo not drawn) [LDN-214097] | No | – | – | – |
| CN(C(=O)c1cc(C2CC2)on1)c1ccccc1 [CAL-37] | Yes | 4.52 | 143 | – |
| Cn1c(C(=O)Nc2cc(C(C)(C)C)on2)cc2ccccc21 [LDN-211910] | Yes | 6.15 | 100 | – |
| COc1ccc(NC(=O)C2=NOC(C)C2)cc1 (stereo not drawn) [CAL-4] | Yes | 5.10 | 211 | – |
| COC1=CC2NC(=O)CC(c3cc([N+](=O)[O-])ccc3F)C2C(OC)=C1OC (stereo not drawn) [LDN-212354] | No/Weak | – | – | – |
| O=C(Nc1nc(C2CCC2)cs1)c1ccc(F)c(Cl)c1 [LDN-212013] | Yes | 6.30 | 100 | – |
| CC1CC(C(=O)NC2CCCc3ccccc32)=NO1 (stereo not drawn) [CAL-1] | No | – | – | – |
| CC(C)c1nc(C(=O)Nc2ccc(F)c(Cl)c2)cs1 [LDN-211986] | Yes | 5.82 | 100 | – |
| CC(/C=C/C(=O)NO)=C\[C@@H](C)C(=O)c1ccc(N(C)C)cc1 [Trichostatin A, trichostatin A, reference compound] | – | – | – | Max. fold increase (cell-based reporter response to known SMN2 modulating compounds): 15 fold; pEC50 (cell-based reporter, known SMN2 modulating compounds, read-out: EC50): 6.64 |
| CCOc1ccc(Br)cc1C1CC(=O)Nc2cc(OC)c(OC)c(OC)c21 (stereo not drawn) [CAL-50] | No | – | – | – |
| COc1cc(Br)c(C2CC(=O)Nc3cc(OC)c(OC)c(OC)c32)cc1OC (stereo not drawn) [CAL-51] | No | – | – | – |
| CCN1C(=O)c2cccc3c(S(=O)(=O)NC4CCCC4)ccc1c23 [Compound 109657] | – | – | – | % activation: 152% |
| CC(C)(C)c1cc(NS(=O)(=O)c2ccc3ccccc3c2)no1 [LDN-211859] | No | – | – | – |
| CC(C)(O)c1sc(NC(=O)C2CCC(F)C(Cl)C2)nc1C(F)(F)F (stereo not drawn) [LDN-213766] | No | – | – | – |
| COc1cc2c(c(OC)c1OC)C(c1ccc3ccccc3c1)CC(=O)N2 (stereo not drawn) [LDN-212357] | No | – | – | – |
| O=C(Nc1ccc2c(c1)OCO2)c1cc(C2CC2)on1 [CAL-33] | Yes | 5.77 | 217 | – |

| Structure (SMILES) | Active (Table 6) | pEC50 [1] | Emax [2] [%] | also measured |
| --- | --- | --- | --- | --- |
| CC(=O)N1c2ccccc2C(Nc2ccccc2)CC1C (stereo not drawn) [Compound 66854] | – | – | – | % activation: 210% |
| CC(C)(C)c1cc(NC(=O)c2cnc3ccccc3c2)no1 [LDN-211906] | Yes | 6.10 | 250 | – |
| Brc1ccc(OCc2cn3cccnc3n2)c(Br)c1 [Compound 67615] | – | – | – | % activation: 105% |
| CCN(CC)CCCNC(=O)c1cc(C2CC2)on1 [CAL-42] | No | – | – | – |
| CC(C)(C)c1cc(NC(=O)c2ccc3ccccc3c2)no1 [LDN-211854] | Yes | 6.30 | 200 | – |
| CC1CC(C(=O)Nc2ccc(Cl)cc2F)=NO1 (stereo not drawn) [CAL-6] | Yes | 5.19 | 180 | – |
| COc1ccc(-c2cn3cccc(C)c3n2)cc1Br [Compound 32531] | – | – | – | % activation: 108% |
| CC(C)c1cc(C(=O)Nc2ccc(F)c(Cl)c2)nn1C [LDN-211856] | No | – | – | – |
| COc1cc2c(c(OC)c1OC)C(c1ccc(Cl)cn1)CC(=O)N2 (stereo not drawn) [LDN-212392] | No | – | – | – |
| Brc1ccc(-c2cn3ccccc3n2)cc1 [Compound 66278] | – | – | – | % activation: 114% |
| COc1cc2c(c(OC)c1OC)C(c1c(F)cccc1Cl)CC(=O)N2 (stereo not drawn) [CAL-53] | Yes | 4.04 | 27 | – |
| O=C(Nc1nc(-c2ccccc2)cs1)c1ccc(F)c(Cl)c1 [LDN-211983] | No | – | – | – |
| COC1=C2C(=CC(OC)C1OC)NC(=O)CC2c1cc(NC(=O)c2ccccc2)ccc1F (stereo not drawn) [LDN-212359] | No | – | – | – |
| CC(C)c1cc(C(=O)Nc2cccc(Cl)c2)no1 [CAL-25] | Yes | 6.46 | 237 | – |
| COc1cc2c(c(OC)c1OC)C(c1ccc(Cl)cc1Cl)CC(=O)N2 (stereo not drawn) [LDN-76074] | No/Weak | – | – | – |
| CC(C)c1cc(C(=O)Nc2cc(Cl)ccc2Cl)no1 [CAL-28] | Yes | 6.05 | 59 | – |
| CC(C)(C)c1cc(NC(=O)c2cnc3ccccc3n2)no1 [LDN-211907] | No/Weak | – | – | – |
| COc1cc2c(c(OC)c1OC)C(c1ccc(Cl)c(Cl)c1)CC(=O)N2 (stereo not drawn) [LDN-212266] | No/Weak | – | – | – |
| CC(C)(C)c1nnc(NC(=O)c2ccc(F)c(Cl)c2)s1 [LDN-211981] | Yes | 5.23 | 100 | – |
| CC(C)(C)c1cc(NC(=O)c2nc3ccccc3[nH]2)no1 [LDN-214095] | No | – | – | – |
| CC(C)(O)c1cnc(NC(=O)c2ccc(F)c(Cl)c2)s1 [LDN-212255] | Yes | 6.40 | 117 | – |
| COc1cc2c(c(OC)c1OC)C(c1cc(C=N)ccc1F)CC(=O)N2 (stereo not drawn) [LDN-212361] | No | – | – | – |
| CNC(=O)c1ccc2nc(N3CCCCC3)sc2c1 [Compound 79213] | – | – | – | % activation: 90% |
| CC1CC(C(=O)Nc2cccnc2)=NO1 (stereo not drawn) [CAL-9] | No | – | – | – |
| O=C(NCCn1ccc2ccccc21)c1ccc2c(c1)OCO2 [Compound 107992] | – | – | – | % activation: 121% |
| CC(C)c1cc(C(=O)Nc2ccccc2C(F)(F)F)no1 [CAL-31] | Yes | 4.80 | 154 | – |

| Structure (SMILES) | Active (Table 6) | pEC50 [1] | Emax [2] [%] | also measured |
| --- | --- | --- | --- | --- |
| CC(C)c1cc(C(=O)Nc2cccc3ccccc23)no1 [LDN-211827] | No/Weak | – | – | – |
| CC1CC(C(=O)Nc2cnccn2)=NO1 (stereo not drawn) [CAL-2] | No | – | – | – |
| CC(C)c1cc(NC(=O)Cc2ccc(F)c(Cl)c2)no1 [LDN-211832] | No | – | – | – |
| COc1ccc(Cl)cc1NC(=O)c1cc(C(C)C)on1 [CAL-29] | No | – | – | – |
| COc1cc2c(c(OC)c1)C(c1cc3c(cc1Br)OCO3)CC(=O)N2 (stereo not drawn) [CAL-52] | No | – | – | – |
| CC(C)c1cc(NC(=O)c2ccc(F)c(Cl)c2)on1 [LDN-211860] | Yes | 5.60 | 125 | – |
| CC(C)(C)c1coc(NC(=O)c2ccc(F)c(Cl)c2)n1 [LDN-211992] | Yes | 6.82 | 100 | – |
| C=C/C(Cl)=C(\CCl)NC(=O)c1cc(C(C)C)on1 [CAL-30] | No | – | – | – |
| Cc1cnc(NC(=O)c2ccc(F)c(Cl)c2)s1 [LDN-211985] | Yes | 6.10 | 150 | – |
| CC(C)C1CC(C(=O)Nc2ccc(F)c(Cl)c2)=NO1 (stereo not drawn) [LDN-211862] | Nonspecific | – | – | – |
| CC(C)(C)c1cc(NC(=O)c2cc3ccccc3[nH]2)no1 [LDN-211911] | Yes | 6.40 | 175 | – |
| COc1cc2c(c(OC)c1OC)C(c1cc(Br)ccc1F)CC(=O)N2C (stereo not drawn) [LDN-212263] | No | – | – | – |
| CC(C)(C)c1cc(NC(=O)c2ccc(F)c(Cl)c2)no1 [LDN-211831] | Yes | 5.52 | 150 | – |
| O=C(Nc1nc(-c2ccccc2)co1)c1ccc(F)c(Cl)c1 [LDN-212011] | No | – | – | – |
| COC1=CC2NC(=O)CC(c3cc(C(N)O)ccc3F)C2C(OC)=C1OC (stereo not drawn) [LDN-212358] | No | – | – | – |
| COc1cc2c(c(OC)c1OC)C(c1cc(Cl)ccc1F)CC(=O)N2 (stereo not drawn) [LDN-213769] | No | – | – | – |
| CC(C)(C)c1cc(=O)[nH]c(NC(=O)c2ccc(F)c(Cl)c2)n1 [LDN-212026] | No | – | – | – |
| CC(C)(C)c1cc(C(=O)Nc2ccc(F)c(Cl)c2)no1 [LDN-211858] | No | – | – | – |
| COc1cc2c(c(OC)c1OCCO)C(c1cc(Cl)ccc1F)CC(=O)N2 (stereo not drawn) [LDN-213771] | No | – | – | – |
| COc1ccc(NC(=O)c2cc(C(C)C)on2)c(OC)c1 [CAL-27] | Yes | 6.00 | 125 | – |
| COC(=O)c1ccc2nc(NC(=O)C(C)C)sc2c1 [Compound 110116] | – | – | – | % activation: 97% |
| COc1cc2c(c(OC)c1OC)C(c1cccnc1Cl)CC(=O)N2 (stereo not drawn) [LDN-212390] | No | – | – | – |
| COc1cc2c(c(OC)c1OC)C(c1cc(Cl)ccc1F)OC(=O)N2 (stereo not drawn) [LDN-213768] | Yes | 5.23 | 150 | – |
| COc1cc2c(c(OC)c1OC)C(c1ccccc1Cl)CC(=O)N2 (stereo not drawn) [CAL-21] | Yes | 3.60 | 14 | – |
